Assay results taken from patent US20220053762A1, “HERBICIDAL COMPOSITIONS” (Bayer Aktiengesellschaft, priority 2018, published 2022).

Test system: harmful plant species
Assay: Specific trial examples: binary compositions applied by the post-emergence method, synergistic effect according to Colby (Tables 3.1-3.2)
Assay type: in vivo
Protocol: When the observed efficacies already exceed the formal sum total of the values of the tests with individual applications, they also exceed the expected value according to Colby, which is calculated using the formula below and is likewise regarded as an indication of synergism (cf. S. R. Colby; in Weeds 15 (1967) p. 20 to 22):
Seeds or rhizome pieces of mono- and dicotyledonous weeds are placed in sandy loam in pots, covered with soil and grown in a greenhouse under good growth conditions (temperature, air humidity, water supply). Three weeks after sowing, the test plants are treated at the three-leaf stage with the compositions according to the invention. The compositions according to the invention formulated as spray powders or as emulsion concentrates are sprayed onto the green plant parts in various dosages with an application rate of 300 to 800 l/ha of water (equivalent).
The sum total of the effects of the individual applications is reported under E^A; Expected values according to Colby are each reported under E^C.
The rating period is reported in days after application (DAT).

Question: `C=C[C@]1(C(=O)N[C@H]2CO[C@@H](C(=O)NS(=O)(=O)C(F)(F)F)C2)CC(c2cc(F)cc(F)c2)=NO1` (relative stereo) [Compound A1, (5S)-3-(3,5-difluorophenyl)-N-[rel-(3R,5R)-5-(trifluoromethylsulfonylcarbamoyl)tetrahydrofuran-3-yl]-5-vinyl-4H-isoxazole-5-carboxamide] was tested. Which “Herbicidal action 28 DAT against Lolium rigidum (resistant biotype)” value (1.67 g a.i./ha) did it give?
Answer: The value was 0%.

Question: What about the “Herbicidal action 28 DAT against Lolium rigidum (sensitive biotype)” value (1.67 g a.i./ha) of the same molecule?
Answer: The value was 0%.

Question: What about the “Herbicidal action 28 DAT against Alopecurus myosuroides (sensitive biotype)” value (5 g a.i./ha) of the same molecule?
Answer: Its value is 0%.

Question: And the “Herbicidal action 28 DAT against Avena fatua” value (5 g a.i./ha)?
Answer: Its value is 50%.

Question: And the “Herbicidal action 28 DAT against Bromus sterilis” value (5 g a.i./ha)?
Answer: Its value is 0%.

Question: What about the “Herbicidal action 28 DAT against Centaurea cyanus” value (5 g a.i./ha) of the same molecule?
Answer: Its value is 20%.

Question: What about the “Herbicidal action 28 DAT against Euphorbia heterophylla” value (5 g a.i./ha) of the same molecule?
Answer: The value was 0%.

Question: And the “Herbicidal action 28 DAT against Galium aparine” value (5 g a.i./ha)?
Answer: Its value is 0%.

Question: What about the “Herbicidal action 28 DAT against Hordeum murinum” value (5 g a.i./ha) of the same molecule?
Answer: The value was 0%.

Question: What about the “Herbicidal action 28 DAT against Ipomoea purpurea” value (5 g a.i./ha) of the same molecule?
Answer: The value was 0%.

Question: What about the “Herbicidal action 28 DAT against Lamium purpureum” value (5 g a.i./ha) of the same molecule?
Answer: The value was 20%.

Question: And the “Herbicidal action 28 DAT against Lolium rigidum (resistant biotype)” value (5 g a.i./ha)?
Answer: Its value is 0%.

Question: And the “Herbicidal action 28 DAT against Lolium rigidum (sensitive biotype)” value (5 g a.i./ha)?
Answer: Its value is 0%.

Question: And the “Herbicidal action 28 DAT against Phalaris minor” value (5 g a.i./ha)?
Answer: Its value is 0%.

Question: And the “Herbicidal action 28 DAT against Polygonum convolvulus” value (5 g a.i./ha)?
Answer: The value was 0%.

Question: What about the “Herbicidal action 28 DAT against Polygonum convulvulus” value (5 g a.i./ha) of the same molecule?
Answer: The value was 50%.

Question: And the “Herbicidal action 28 DAT against Raphanus raphanistrum” value (5 g a.i./ha)?
Answer: Its value is 80%.

Question: What about the “Herbicidal action 28 DAT against Stellaria media” value (5 g a.i./ha) of the same molecule?
Answer: Its value is 0%.

Question: And the “Herbicidal action 28 DAT against Veronica hederifolia” value (5 g a.i./ha)?
Answer: Its value is 0%.

Question: And the “Herbicidal action 28 DAT against Viola tricolor” value (5 g a.i./ha)?
Answer: Its value is 0%.

Question: And the “Herbicidal action 28 DAT against Alopecurus myosuroides (resistant biotype)” value (15 g a.i./ha)?
Answer: Its value is 60%.

Question: What about the “Herbicidal action 28 DAT against Alopecurus myosuroides (sensitive biotype)” value (15 g a.i./ha) of the same molecule?
Answer: The value was 60%.

Question: What about the “Herbicidal action 28 DAT against Centaurea cyanus” value (15 g a.i./ha) of the same molecule?
Answer: The value was 30%.

Question: And the “Herbicidal action 28 DAT against Euphorbia heterophylla” value (15 g a.i./ha)?
Answer: Its value is 10%.

Question: What about the “Herbicidal action 28 DAT against Galium aparine” value (15 g a.i./ha) of the same molecule?
Answer: Its value is 30%.

Question: And the “Herbicidal action 28 DAT against Ipomoea purpurea” value (15 g a.i./ha)?
Answer: The value was 0%.

Question: And the “Herbicidal action 28 DAT against Lamium purpureum” value (15 g a.i./ha)?
Answer: The value was 50%.

Question: And the “Herbicidal action 28 DAT against Lolium rigidum (resistant biotype)” value (15 g a.i./ha)?
Answer: Its value is 0%.

Question: What about the “Herbicidal action 28 DAT against Lolium rigidum (sensitive biotype)” value (15 g a.i./ha) of the same molecule?
Answer: Its value is 0%.

Question: And the “Herbicidal action 28 DAT against Phalaris minor” value (15 g a.i./ha)?
Answer: The value was 60%.

Question: What about the “Herbicidal action 28 DAT against Polygonum convolvulus” value (15 g a.i./ha) of the same molecule?
Answer: Its value is 70%.

Question: And the “Herbicidal action 28 DAT against Polygonum convulvulus” value (15 g a.i./ha)?
Answer: The value was 93%.

Question: What about the “Herbicidal action 28 DAT against Viola tricolor” value (15 g a.i./ha) of the same molecule?
Answer: The value was 20%.

Question: What about the “Herbicidal action against Echinochloa crus-galli” value (28 DAT, g a.i./ha: r22 270, r23 90, r24 30, r25 5, r26 1.67) of the same molecule?
Answer: Its value is 15%.

Question: What about the “Herbicidal action against Eleusine indica” value (28 DAT, g a.i./ha: r62 270, r63 30, r64 15, r65 5) of the same molecule?
Answer: The value was 40%.

Question: And the “Herbicidal action against Polygonum convulvulus” value (28 DAT, g a.i./ha: r137 270, r138 90, r139 30, r140 5)?
Answer: The value was 50%.

Question: And the “Herbicidal action against Alopecurus myosuroides (resistant biotype)” value (28 DAT, g a.i./ha: r165 15, r166 90, r167 30)?
Answer: Its value is 60%.

Question: What about the “Herbicidal action against Lolium rigidum (resistant bio type)” value (28 DAT, g a.i./ha: r220 15, r221 5, r222 270, r223 90) of the same molecule?
Answer: Its value is 0%.

Question: And the “Herbicidal action against Veronica hederifolia” value (28 DAT, g a.i./ha: r294 5, r295 90)?
Answer: Its value is 0%.

Question: What about the “Herbicidal action 28 DAT against Euphorbia heterophylla” value (45 g a.i./ha) of the same molecule?
Answer: The value was 35%.

Question: And the “Herbicidal action 28 DAT against Galium aparine” value (45 g a.i./ha)?
Answer: Its value is 50%.

Question: What about the “Herbicidal action 28 DAT against Ipomoea purpurea” value (45 g a.i./ha) of the same molecule?
Answer: The value was 10%.

Question: What about the “Herbicidal action 28 DAT [%] against Digitaria sanguinalis” value (post-emergence, single active compound (Glyphosate series), g a.i./ha: r765 50, r767 15) of the same molecule?
Answer: The value was 30%.

Question: What about the “Herbicidal action 28 DAT [%] against Setaria viridis” value (post-emergence, single active compound (Glyphosate series), g a.i./ha: r786 450, r788 1.67) of the same molecule?
Answer: Its value is 10%.

Question: What about the “Herbicidal action 28 DAT [%] against Abutilon theophrasti” value (post-emergence, single active compound (Glyphosate series), g a.i./ha: r796 450, r798 5) of the same molecule?
Answer: Its value is 0%.

Question: What about the “Herbicidal action 28 DAT [%] against Echinochloa crus-galli” value (post-emergence, single active compound, g a.i./ha: r19 150, r20 50, r21 5) of the same molecule?
Answer: The value was 15%.

Question: What about the “Herbicidal action 28 DAT [%] against Bromus sterilis” value (post-emergence, single active compound, g a.i./ha: r172 5, r173 1.67, r174 450) of the same molecule?
Answer: Its value is 0%.

Question: And the “Herbicidal action 28 DAT [%] against Galium aparine” value (post-emergence, single active compound, g a.i./ha: r183 5, r184 50)?
Answer: The value was 0%.

Question: And the “Herbicidal action 28 DAT [%] against Lamium purpureum” value (post-emergence, single active compound, g a.i./ha: r204 45, r205 50)?
Answer: Its value is 70%.

Question: And the “Herbicidal action 28 DAT [%] against Lolium rigidum (sensitive biotype)” value (post-emergence, single active compound, g a.i./ha: r214 15, r215 150, r216 50)?
Answer: Its value is 0%.

Question: What about the “Herbicidal action 28 DAT [%] against Lolium rigidum (resistant biotype)” value (post-emergence, single active compound, g a.i./ha: r224 15, r225 5, r226 150, r227 50) of the same molecule?
Answer: The value was 0%.

Question: What about the “Herbicidal action 28 DAT [%] against Papaverrhoeas” value (post-emergence, single active compound, g a.i./ha: r235 5, r236 450, r237 50) of the same molecule?
Answer: Its value is 40%.

Question: And the “Herbicidal action 28 DAT [%] against Raphanus raphanistrum” value (post-emergence, single active compound, g a.i./ha: r282 5, r283 150, r284 50)?
Answer: Its value is 80%.

Question: And the “Herbicidal action 28 DAT [%] against Veronica hederifolia” value (post-emergence, single active compound, g a.i./ha: r292 5, r293 150)?
Answer: Its value is 0%.
